Experimental data: EP4631938A1, “NITROGEN-CONTAINING HETEROCYCLE WITH SEROTONIN RECEPTOR-BINDING ACTIVITY AND CARBOCYCLIC DERIVATIVE” (Shionogi & Co., Ltd, priority 2022, dated 2024)

Assays:
[1] = molecular target: T1, human recombinant 5-HT2C receptor (Homo sapiens, UniProt P28335); assay: Test Example 2: 5-HT2C receptor binding inhibition test ([3H]-Mesulergine; non-specific ligand Serotonin HCl); conditions: human serotonin 5-HT2C receptor binding activity
T1 construct: expressed in transfected cells; host or cells: Jump-In HEK cells (membrane preparation)
T1 sequence (P28335 33-458): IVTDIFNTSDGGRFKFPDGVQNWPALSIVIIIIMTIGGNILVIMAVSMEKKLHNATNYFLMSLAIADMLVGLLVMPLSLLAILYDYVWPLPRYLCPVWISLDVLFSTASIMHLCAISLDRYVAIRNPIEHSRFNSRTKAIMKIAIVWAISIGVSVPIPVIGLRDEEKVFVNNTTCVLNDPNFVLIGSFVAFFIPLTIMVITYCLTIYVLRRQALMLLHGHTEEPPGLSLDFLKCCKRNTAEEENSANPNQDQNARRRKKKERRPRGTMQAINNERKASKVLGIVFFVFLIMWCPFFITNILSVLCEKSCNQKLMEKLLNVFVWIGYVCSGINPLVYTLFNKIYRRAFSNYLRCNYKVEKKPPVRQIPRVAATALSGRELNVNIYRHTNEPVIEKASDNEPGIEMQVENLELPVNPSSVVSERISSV
Summary of the method: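 Ki values come from dose-response curves of [3H]-mesulergine displacement from human 5-HT2C membranes after 2 h at 37°C, scored by scintillation counting of filter-bound radioactivity. Serotonin HCl (500 µmol/L) set non-specific binding; Kd per membrane lot was taken from Scatchard plots.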

[2] = molecular target: T2, human recombinant 5-HT2A receptor (Homo sapiens, UniProt P28223); assay: Test Example 1-2: 5-HT2A receptor binding inhibition test ([3H]-Ketanserin; non-specific ligand Ketanserin); conditions: [3H]-Ketanserin; non-specific binding with 500 µmol/L Ketanserin; room temperature (25°C), 1.5 hours; read-out: h 5-HT2A Ki
T2 construct: expressed in transfected cells; host or cells: Jump-In HEK cells (membrane preparation)
T2 sequence (P28223 whole entry): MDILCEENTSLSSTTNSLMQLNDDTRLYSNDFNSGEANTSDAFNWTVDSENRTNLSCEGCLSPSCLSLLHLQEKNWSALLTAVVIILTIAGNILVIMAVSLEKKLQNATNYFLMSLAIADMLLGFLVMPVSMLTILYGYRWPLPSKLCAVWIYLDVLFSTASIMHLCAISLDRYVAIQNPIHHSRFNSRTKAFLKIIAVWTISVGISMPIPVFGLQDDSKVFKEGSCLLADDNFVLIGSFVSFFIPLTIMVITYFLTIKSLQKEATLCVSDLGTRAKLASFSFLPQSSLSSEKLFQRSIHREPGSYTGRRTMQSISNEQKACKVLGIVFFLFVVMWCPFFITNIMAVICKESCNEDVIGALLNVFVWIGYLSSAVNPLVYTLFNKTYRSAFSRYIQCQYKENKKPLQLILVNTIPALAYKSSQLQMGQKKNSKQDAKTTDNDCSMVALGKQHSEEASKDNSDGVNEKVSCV
Summary of the method: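 Ki values were derived from dose-response inhibition of [3H]-ketanserin binding; nonspecific binding was set with 500 µmol/L ketanserin, and Kd was set for each membrane lot from Scatchard saturation plots. Incubation lasted 1.5 h at room temperature (25 °C). Bound radioligand was harvested on Tris-HCl (pH 7.4)-presoaked filters and counted.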

| SMILES | Ki [1] [nM] | Ki [2] [nM] |
| --- | --- | --- |
| COCc1nc(C)c(-c2cc(Nc3ncc(Br)cc3Cl)ncc2OCCO)c(C)n1 [Compound I-323] | 2.81 | 2.14 |
| Cc1cc(OC(F)(F)F)cnc1Nc1cc(-c2c(C)cnn2C)c(OCCO)cn1 [Compound I-180] | 1.86 | 0.346 |
| Cn1ncc(Br)c1-c1cc(Nc2nc3ccccc3s2)ncc1OCCO [Compound I-285] | 7.69 | 0.299 |
| Cn1ncc(Cl)c1-c1cc(Nc2ncc(OCC(F)(F)F)cc2F)ncc1OCCO [Compound I-322] | 1.3 | 0.414 |
| Cc1cc(OC(F)(F)F)cnc1Nc1cc(-c2c(Br)cnn2C)c(OCCO)cn1 [Compound I-179] | 0.296 | 0.278 |
| Cn1ncc(Cl)c1-c1cc(Nc2ncc(C(F)(F)F)cn2)ncc1OCCO [Compound I-311] | 6.41 | 0.432 |
| COCc1nc(C)c(-c2cc(Nc3ncc(-c4cnn(C(F)F)c4)cc3Cl)ncc2OCCO)c(C)n1 [Compound I-237] | 7.37 | 7.43 |
| COCc1nc(C)c(-c2cc(Nc3ncc(-c4ncc(C)s4)cc3Cl)ncc2OCCO)c(C)n1 [Compound I-335] | 1.87 | 1.18 |
| Cn1ncc(Cl)c1-c1cc(Nc2ncc(C(F)(F)F)cn2)c(Cl)cc1OCCO [Compound I-410] | 3.94 | 0.573 |
| Cn1ncc(Br)c1-c1cc(Nc2cc(C(F)(F)F)c(Cl)cn2)ncc1OCCO [Compound I-275] | 0.722 | 0.273 |
| O=C1NCc2c1cncc2-c1cc(Nc2ncc(C(F)(F)F)cc2F)ncc1OCCO [Compound I-368] | 51.2 | 2.13 |
| COCc1nc(C)c(-c2cc(Nc3ncc(-n4cc(Cl)cn4)cc3Cl)ncc2OCCO)c(C)n1 [Compound I-236] | 0.727 | 1.24 |
| Cc1nc(C)c(-c2cc(Nc3ccc(Oc4ccc(F)cc4)cn3)ncc2OCCO)c(C)n1 [Compound I-308] | 9.45 | 0.575 |
| Cn1ncc(Br)c1-c1cc(Nc2ccc(Cl)cn2)ncc1OCCO [Compound I-284] | 2.07 | 0.301 |
| Cn1ncc(Br)c1-c1nc(Nc2ccc(C(F)(F)F)nc2)ncc1OCCO [Compound I-349] | 47.7 | 0.254 |
| Cn1ncc(Br)c1-c1nc(Nc2ccc(C(F)(F)F)cn2)c(F)cc1OCCO [Compound I-279] | 1.94 | 0.306 |
| Cn1ncc(Br)c1-c1cc(Nc2ccc(C(F)(F)F)nn2)c(F)cc1OCCO [Compound I-402] | 11 | 0.533 |
| Cc1cc(Cl)ccc1Nc1ncc(OCCO)c(-c2c(Br)cnn2C)n1 [Compound I-343] | 2.42 | 0.184 |

Next, values leading:

| Ki [1] [nM] | Ki [2] [nM] | SMILES |
| --- | --- | --- |
| 2.7 | 2.35 | Cc1nc(COC(C)C)nc(C)c1-c1cc(Nc2ncc(C(F)(F)F)cc2Cl)ncc1OCCO [Compound I-204] |
| 1.78 | 1.3 | Cc1nc(C2CC2)nc(C)c1-c1cc(Nc2ncc(C(F)(F)F)cc2Cl)ncc1OCCO [Compound I-206] |
| 3.07 | 0.635 | Cc1nc(C)c(-c2nc(Nc3ccc(OC(F)(F)F)cc3)ncc2OCCO)c(C)n1 [Compound I-357] |
| 5.67 | 1.27 | Cc1nc(C)c(-c2cc(Nc3ncc(C(F)(F)F)cc3F)ncc2OCCO)c(C)n1 [Compound I-306] |
| 58.2 | 1.72 | COC(=O)c1ccc(C)c(-c2cc(Nc3ncc(C(F)(F)F)cc3F)ncc2OCCO)c1 [Compound I-369] |
| 5.57 | 0.67 | Cc1nc(C)c(-c2cc(Nc3ncc(Cl)cc3F)c(F)cc2OCCO)c(C)n1 [Compound I-166] |
| 61.5 | 2.37 | CNC(=O)c1cnc(C)c(-c2cc(Nc3ncc(C(F)(F)F)cc3F)ncc2OCCO)c1 [Compound I-371] |
| 65.6 | 2.83 | Cc1nc(C)c(-c2cc(Nc3ncc(C(F)(F)F)cc3F)c(F)cc2OC[C@H](C)O)c(C)n1 [Compound I-197] |
| 3.89 | 1.22 | Cc1nc(OC2CC2)nc(C)c1-c1cc(Nc2ncc(C(F)(F)F)cc2Cl)ncc1OCCO [Compound I-212] |
